Assay results from patent US20210196779A1, “Compositions and Methods for Treating Steroid Hormone-Related Diseases or Disorders” (YALE UNIVERSITY, priority 2018, published 2021).

Experiments:
[1] = tested on: different prostate cell lines; test: Growth of different prostate cell lines, all conditions; type: cell-based; details: under all conditions, up to 500 ng/ml
Experimental: 20,000 cells in 1 ml of medium (phenol red free RPMI1640, 5% charcoal-dialysis FBS, 50 μg/ml Kanamyacin) were seeded per well of a 24-well plate and incubated in a 37° C. incubator with 5% CO2 overnight. […] For prostate cancer cells, DHT (25 nM) was used to stimulate androgen receptor activity. For glucocorticoid receptor overexpressed LNCaP cells, dexamethasone (50 nM) was used to stimulate glucocorticoid receptor activity. For all breast cancer cells, E2 (10 nM) was used to stimulate ER activity. Control medium without any steroid hormone was used as a control setting. After 4 days of incubation, cells were fixed and stained for 2 h with 0.5% methylene blue in 50% ethanol, followed by washing with tap water to remove unbound dye. Plates were air dried and then cells were dissolved in 1% sarkosyl (sodium lauroyl sarcosinate) by shaking at room temperature for 3 h. Cell growth was quantified based on the amount of methylene blue adsorbed by the cells as measured by a spectrophotometer (Molecular Devices) at 595 nm. All experiments were performed in triplicate wells and were repeated at least three times.

[2] = tested on: PSA mRNA; test: qRT-PCR of PSA mRNA in 22RV1 cells; type: cell-based, Human; details: 22RV1 cells treated overnight, normalized to beta-actin
Experimental: (§1) FIGS. 4C-4D are graphs showing the effect of Y1830, RG (or the fraction comprising RG) and RGA (or the fraction comprising RGA) on the mRNA of PSA (FIG. 4C) and KLK2 (FIG. 4D). 22RV1 cells were treated with Y1830, RGA or RG overnight and mRNA was extracted for qRT-PCR to determine the mRNA expression level of PSA and KLK2 as normalized to beta-actin.
(§2) RNA was extracted from herb treated cells using the Roche High Pure RNA isolation kit. cDNA was then generated from RNA samples using a Bio-rad iScript Advanced cDNA synthesis kit for RT-qPCR. qPCR was performed using human NRF2, H01, NQO1 and β-actin primers (Table 1) and iTaq™ Universal SYBR® Green Supermix in a CFX PCR machine (Bio-rad). Relative mRNA expression was calculated based on the change of the threshold cycle relative to the internal control, β-actin, using a standard curve generated by purified PCR products.

[3] = tested on: KLK2 mRNA; test: qRT-PCR of KLK2 mRNA in 22RV1 cells; type: cell-based, Human; details: 22RV1 cells treated overnight, normalized to beta-actin
Experimental: as §1, §2

[4] = tested on: 22RV1 tumor; test: Inhibition of 22RV1 prostate cancer growth in nude mice; type: in vivo; details: equivalent dose to Y1830 (2.2 mg/kg, PO, B.I.D.), 11 days
Experimental: (§3) 22RV1 prostate cancer cells 5×10^6 cells in 100 μl Matrigel were injected subcutaneously into 10 week old male NCR nude mice. When 22RV1 tumor reached 5 mm×5 mm, mice were orally fed with Y1830 (water extract, 500 mg/kg, PO, B.I.D, N5) and RGA (or the fraction comprising RGA) (equivalent dose to Y1830: 2.2 mg/kg, PO, B.I.D.) for 11 days. Tumor volume was estimated by using the formula length×width^2/2.
(§4) When tumors reached 5 mm×5 mm, Y1830 water extract (500 mg/kg, BID, PO) and RGA (or the fraction comprising RGA) at equivalent dose to Y1830 were used to treat animals for 11 days. […] Therefore, it is further concluded that compounds other than molecules in RGA containing fraction of Y1830 total extract may also have anti-tumor activity or prevent tumor to develop drug resistant.

[5] = tested on: Brd4; test: Western blot, MCF7 and 22RV1 cells, Brd4; type: cell-based; details: MCF7 (with or without E2) or 22RV1 (with or without DHT), 24 h
Experimental: (§5) Western blot analysis was used to determine the protein expression using protein specific antibodies. β-actin or histone 3 was used to normalize protein loading.
(§6) Total cell lysis was conducted using 2×SDS sample buffer (62.5 mM Tris-HCl, 2% SDS, 10% glycerol, 50 mM DTT, and 0.05% bromophenol blue). The samples were sonicated for 10 s to shear DNA. Cell nuclei were isolated using Tris buffer saline with 0.4% NP40. Cell extracts were then electrophoresed through 10% SDS-polyacrylamide gels and transferred to 0.2 μm nitrocellulose membranes (Bio-Rad Laboratories, Hercules, Calif.) with a Miniprotein II transferring apparatus (Bio-Rad). The membranes were blocked and probed in TBS-T buffer (1×TBS buffer, 0.2% Tween 20) containing 5% non-fat milk. […] Enhanced chemiluminescence reagents (Perkin-Elmer Life Science Products, Boston, Mass.) were used to visualize the immunoreactive bands and the densities of protein bands were scanned analyzed using ImageJ software from the NIH.

[6] = target: AR (stimulated with DHT) (Homo sapiens, UniProt P10275, T878A); test: AR driven luciferase activity (DHT) in LNCaP / LNCaP-GR cells; details: LNCaP / LNCaP-GR luciferase reporter cells
Sequence of AR (stimulated with DHT) (P10275 whole entry T878A): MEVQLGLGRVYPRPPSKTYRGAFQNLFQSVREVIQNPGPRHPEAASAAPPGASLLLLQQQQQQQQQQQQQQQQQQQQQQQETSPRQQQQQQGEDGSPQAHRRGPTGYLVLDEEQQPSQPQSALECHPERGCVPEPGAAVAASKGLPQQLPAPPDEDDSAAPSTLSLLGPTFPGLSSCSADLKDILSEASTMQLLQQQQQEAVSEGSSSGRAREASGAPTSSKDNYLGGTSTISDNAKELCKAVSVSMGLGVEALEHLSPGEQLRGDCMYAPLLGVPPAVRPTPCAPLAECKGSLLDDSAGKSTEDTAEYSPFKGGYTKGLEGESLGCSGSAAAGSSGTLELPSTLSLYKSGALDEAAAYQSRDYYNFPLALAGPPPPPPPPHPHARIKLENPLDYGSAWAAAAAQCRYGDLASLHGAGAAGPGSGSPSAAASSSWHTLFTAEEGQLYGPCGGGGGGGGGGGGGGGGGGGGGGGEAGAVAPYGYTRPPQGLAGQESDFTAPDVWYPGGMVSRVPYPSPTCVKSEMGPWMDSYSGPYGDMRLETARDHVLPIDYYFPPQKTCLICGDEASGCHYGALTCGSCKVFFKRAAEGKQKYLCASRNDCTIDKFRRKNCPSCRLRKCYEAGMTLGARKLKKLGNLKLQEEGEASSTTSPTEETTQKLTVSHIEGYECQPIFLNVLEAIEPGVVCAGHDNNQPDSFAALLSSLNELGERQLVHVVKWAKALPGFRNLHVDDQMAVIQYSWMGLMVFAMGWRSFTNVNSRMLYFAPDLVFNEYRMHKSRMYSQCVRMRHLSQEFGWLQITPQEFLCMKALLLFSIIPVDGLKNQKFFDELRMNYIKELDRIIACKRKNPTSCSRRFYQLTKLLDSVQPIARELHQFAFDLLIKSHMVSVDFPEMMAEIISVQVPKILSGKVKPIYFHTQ
Experimental: Both LNCaP and GR overexpressing LNCaP cells were carrying luciferase reporters with AR response elements.
22RV1 or LNCaP prostate cancer cells were used in the screening study. 22RV1 or LNCaP cell lines were stably transfected with PSA promoter-PGL4.2 luciferase reporter.
Reporter cells were treated with herbal extracts at 30, 100, 300, and 1000 μg/ml for 24 h in a 37° C.-CO2 incubator. […] Dexamethasone (50 nM) was used to stimulate glucocorticoid receptor activity Cells were lysed using luciferase lysis buffer after which luciferase buffer with luciferin was added to generate luminescence. Luminescence was recorded using a luminescence microplate reader.

[7] = tested on: tumor protein p53; test: Western blot, MCF7 cells, p53; type: cell-based; details: wt MCF7 cells, 24 h
Experimental: (§7) Western blot analysis was used to determine the protein expression using protein specific antibodies.
as §6, with “milk. Monoclonal rabbit anti-AR (1:5000), was used to detect androgen receptor (Abcam #133273), Glucocorticoid Receptor (D8H2) XP® Rabbit mAb #3660, ERa Antibody (F-10): sc-8002, BRD4 (E2A7X) Rabbit mAb #13440, Brd2 (D89B4) Rabbit mAb #5848, PARP (46D11) Rabbit mAb #9532, Acetyl-Histone H3 (Lys27) (D5E4) XP® Rabbit mAb #8173 and a monoclonal actin antibody diluted 1:2500 (Sigma, St. Louis, Mo.) was used to detect β-actin as the internal control to confirm equal protein loading.” for “milk.”

[8] = tested on: Gata3; test: Western blot, MCF7 cells, Gata3; type: cell-based; details: 24 h
Experimental: as §7
as §6, with “milk. Monoclonal rabbit anti-AR (1:5000), was used to detect androgen receptor (Abcam #133273), Glucocorticoid Receptor (D8H2) XP® Rabbit mAb #3660, ERa Antibody (F-10): sc-8002, BRD4 (E2A7X) Rabbit mAb #13440, Brd2 (D89B4) Rabbit mAb #5848, PARP (46D11) Rabbit mAb #9532, Acetyl-Histone H3 (Lys27) (D5E4) XP® Rabbit mAb #8173 and a monoclonal actin antibody diluted 1:2500 (Sigma, St. Louis, Mo.) was used to detect β-actin as the internal control to confirm equal protein loading.” for “milk.”

[9] = Body weight of nude mice during the treatment; type: in vivo; details: equivalent dose to Y1830 (2.2 mg/kg, PO, B.I.D.), 11 days
Experimental: as §3, §4

[10] = tested on: CD47; test: Western blot, MCF7 cells, CD47; type: cell-based; details: MCF7 cells (FIG. 10)
Experimental: as §6, with “milk. Monoclonal rabbit anti-AR (1:5000), was used to detect androgen receptor (Abcam #133273), Glucocorticoid Receptor (D8H2) XP® Rabbit mAb #3660, ERa Antibody (F-10): sc-8002, BRD4 (E2A7X) Rabbit mAb #13440, Brd2 (D89B4) Rabbit mAb #5848, PARP (46D11) Rabbit mAb #9532, Acetyl-Histone H3 (Lys27) (D5E4) XP® Rabbit mAb #8173 and a monoclonal actin antibody diluted 1:2500 (Sigma, St. Louis, Mo.) was used to detect β-actin as the internal control to confirm equal protein loading.” for “milk.”

[11] = tested on: H3K14 acetylation; test: Western blot, MCF7 and 22RV1 cells, H3K14 acetylation; type: cell-based; details: MCF7 and 22RV1 cells (FIGS. 11A-11B), 24 h
Experimental: as §5, §6

[12] = tested on: Poly[ADP-ribose] polymerase-1 (PARP-1); test: Western blot, MCF7 cells, PARP-1; type: cell-based; details: 24 h
Experimental: as §7
as §6, with “milk. Monoclonal rabbit anti-AR (1:5000), was used to detect androgen receptor (Abcam #133273), Glucocorticoid Receptor (D8H2) XP® Rabbit mAb #3660, ERa Antibody (F-10): sc-8002, BRD4 (E2A7X) Rabbit mAb #13440, Brd2 (D89B4) Rabbit mAb #5848, PARP (46D11) Rabbit mAb #9532, Acetyl-Histone H3 (Lys27) (D5E4) XP® Rabbit mAb #8173 and a monoclonal actin antibody diluted 1:2500 (Sigma, St. Louis, Mo.) was used to detect β-actin as the internal control to confirm equal protein loading.” for “milk.”

[13] = tested on: H3K27 acetylation; test: Western blot, MCF7 and 22RV1 cells, H3K27 acetylation; type: cell-based; details: 24 h
Experimental: as §5, §6

Row | inhibition of DHT induced transcriptional response [6] | SMILES | inhibitory effect on cell growth (in words) [1] | inhibition of mRNA expression of PSA [2] | inhibition of mRNA expression of KLK2 [3] | inhibition on 22RV1 tumor growth [4] | Brd4 protein expression [5] | p53 protein expression [7] | Gata3 protein expression [8] | animal body weight loss [9] | CD47 expression [10] | H3K14 acetylation [11] | PARP-1 protein expression [12] | H3K27 acetylation [13]
1 |  | Cc1c(OC2OC(CO)C(O)C(O)C2OC2OC(C)C(O)C(O)C2O)cc2c(c1O)C(=O)c1ccc(O)cc1C2=O [RG, 1,3,6-Trihydroxy-2-methyl-9,10-anthracenedione 3-O-[α-L-Rhamnopyranosyl-(1→2)-β-D-glucopyranoside]] | did not any show inhibitory effect | did not demonstrate this level of activity | did not demonstrate this level of activity |  |  |  |  |  |  |  |  | 
2 | effectively inhibit | CC(=O)OCC1OC(Oc2cc3c(c(O)c2C)C(=O)c2ccc(O)cc2C3=O)C(OC2OC(C)C(O)C(O)C2O)C(O)C1O [RGA, 1,3,6-Trihydroxy-2-methyl-9,10-anthracenedione 3-O-[α-L-Rhamnopyranosyl-(1→2)-6-O-acetyl-β-D-glucopyranoside]] |  |  |  | significant inhibition on 22RV1 tumor growth from day 2 to day 6 | decreased | downregulated | downregulation | did not cause animal body weight loss | downregulation | did not have a large impact | downregulate | selectively decreased
